Where a SMILES comes first, the peptide text is derived from it. [ ]: non-standard residue; d: D form. pGlu = O=C1CC[C@@H](C(=O)O)N1; Thz = O=C(O)[C@@H]1CSCN1
Assays:
[1] = (§1) The drug is tested on WLS-027 corresponding to human gut metagenome with ENA study accession number: PRJEB37062 and ENA sample accession number: ERS12561744 for biotransformation under anaerobic condition. The drug concentrations were measured over 9 timepoints collected between 0 and 24 hours of incubation by liquid-chromatography-coupled mass spectrometry (LC–MS); conditions: 2 µM
[2] = as §1, with “Z-026” for “WLS-027”, “to” for “to human gut”, “ERS12561825” for “ERS12561744”; conditions: 2 µM
[3] = as §1, with “Z-024” for “WLS-027”, “pig” for “human”, “ERS12561823” for “ERS12561744”; conditions: 2 µM
[4] = as §1, with “WLS-086” for “WLS-027”, “ERS12561752” for “ERS12561744”; conditions: 2 µM
[5] = human gut metagenome, 24 h, 2 µM
[6] = human gut metagenome, 24 h, 2 µM; remark: listed apart in the source
[7] = as §1, with “Z-004” for “WLS-027”, “to” for “to human gut”, “ERS12561804” for “ERS12561744”; conditions: 2 µM
[8] = as §1, with “Z-001” for “WLS-027”, “mouse” for “human”, “ERS12561801” for “ERS12561744”; conditions: 2 µM
[9] = as §1, with “Z-029” for “WLS-027”, “rat” for “human”, “ERS12561828” for “ERS12561744”; conditions: 2 µM
[10] = as §1, with “WLS-370” for “WLS-027”, “ERS12561793” for “ERS12561744”; conditions: 2 µM
[11] = as §1, with “WLS-090” for “WLS-027”, “ERS12561753” for “ERS12561744”; conditions: 2 µM
[12] = human gut metagenome, 24 h, 2 µM; remark: listed apart in the source
[13] = human gut metagenome, 24 h, 2 µM; remark: listed apart in the source
[14] = as §1, with “Z-022” for “WLS-027”, “mouse” for “human”, “ERS12561821” for “ERS12561744”; conditions: 2 µM
[15] = human gut metagenome, 24 h, 2 µM; remark: listed apart in the source
[16] = human gut metagenome, 24 h, 2 µM; remark: listed apart in the source
[17] = as §1, with “Z-009” for “WLS-027”, “pig” for “human”, “ERS12561809” for “ERS12561744”; conditions: 2 µM
[18] = human gut metagenome, 24 h, 2 µM; remark: listed apart in the source
[19] = human gut metagenome, 24 h, 2 µM; remark: listed apart in the source
[20] = human gut metagenome, 24 h, 2 µM; remark: listed apart in the source
Further: call rule not given here.

CCC(COC(=O)c1cc(OC)c(OC)c(OC)c1)(c1ccccc1)N(C)C.O=C(O)/C=C\C(=O)O (stereo unspecified)
Bacterial Biotransformation [1]: Compound metabolized
Bacterial Biotransformation [2]: Compound NOT metabolized
Bacterial Biotransformation [3]: Compound NOT metabolized
Bacterial Biotransformation [4]: Compound NOT metabolized
Bacterial Biotransformation [5]: Compound metabolized
Bacterial Biotransformation [6]: Compound metabolized
Bacterial Biotransformation [7]: Compound NOT metabolized
Bacterial Biotransformation [8]: Compound NOT metabolized
Bacterial Biotransformation [9]: Compound NOT metabolized
Bacterial Biotransformation [10]: Compound NOT metabolized
Bacterial Biotransformation [11]: Compound NOT metabolized
Bacterial Biotransformation [12]: Compound metabolized
Bacterial Biotransformation [13]: Compound NOT metabolized
Bacterial Biotransformation [14]: Compound metabolized
Bacterial Biotransformation [15]: Compound metabolized
Bacterial Biotransformation [16]: Compound metabolized
Bacterial Biotransformation [17]: Compound metabolized
Bacterial Biotransformation [18]: Compound NOT metabolized
Bacterial Biotransformation [19]: Compound NOT metabolized
Bacterial Biotransformation [20]: Compound NOT metabolized

COc1ccc(CCN(C)CCCC(C#N)(c2ccc(OC)c(OC)c2)C(C)C)cc1OC (stereo unspecified)
Bacterial Biotransformation [1]: Compound metabolized
Bacterial Biotransformation [2]: Compound NOT metabolized
Bacterial Biotransformation [3]: Compound metabolized
Bacterial Biotransformation [4]: Compound metabolized
Bacterial Biotransformation [5]: Compound NOT metabolized
Bacterial Biotransformation [6]: Compound metabolized
Bacterial Biotransformation [7]: Compound NOT metabolized
Bacterial Biotransformation [8]: Compound NOT metabolized
Bacterial Biotransformation [9]: Compound NOT metabolized
Bacterial Biotransformation [10]: Compound metabolized
Bacterial Biotransformation [11]: Compound metabolized
Bacterial Biotransformation [12]: Compound metabolized
Bacterial Biotransformation [13]: Compound NOT metabolized
Bacterial Biotransformation [14]: Compound NOT metabolized
Bacterial Biotransformation [15]: Compound metabolized
Bacterial Biotransformation [16]: Compound metabolized
Bacterial Biotransformation [17]: Compound metabolized
Bacterial Biotransformation [18]: Compound NOT metabolized
Bacterial Biotransformation [19]: Compound metabolized
Bacterial Biotransformation [20]: Compound NOT metabolized

CCCCCCOC(=O)/N=C(/N)c1ccc(NCc2nc3cc(C(=O)N(CCC(=O)OCC)c4ccccn4)ccc3n2C)cc1.CS(=O)(=O)O [DABIGATRAN ETEXILATE MESYLATE]
Bacterial Biotransformation [2]: Compound NOT metabolized
Bacterial Biotransformation [3]: Compound NOT metabolized
Bacterial Biotransformation [7]: Compound NOT metabolized
Bacterial Biotransformation [8]: Compound NOT metabolized
Bacterial Biotransformation [9]: Compound NOT metabolized
Bacterial Biotransformation [10]: Compound NOT metabolized
Bacterial Biotransformation [12]: Compound NOT metabolized
Bacterial Biotransformation [14]: Compound NOT metabolized
Bacterial Biotransformation [17]: Compound NOT metabolized

C[C@@H]1C[C@H]2[C@@H]3CCC4=CC(=O)C=C[C@]4(C)[C@@]3(F)[C@@H](O)C[C@]2(C)[C@@]1(O)C(=O)CO [DEXAMETHASONE]
Bacterial Biotransformation [1]: Compound NOT metabolized
Bacterial Biotransformation [2]: Compound NOT metabolized
Bacterial Biotransformation [3]: Compound metabolized
Bacterial Biotransformation [4]: Compound metabolized
Bacterial Biotransformation [5]: Compound NOT metabolized
Bacterial Biotransformation [6]: Compound NOT metabolized
Bacterial Biotransformation [7]: Compound metabolized
Bacterial Biotransformation [8]: Compound NOT metabolized
Bacterial Biotransformation [9]: Compound NOT metabolized
Bacterial Biotransformation [12]: Compound NOT metabolized
Bacterial Biotransformation [13]: Compound NOT metabolized
Bacterial Biotransformation [14]: Compound metabolized
Bacterial Biotransformation [15]: Compound NOT metabolized
Bacterial Biotransformation [16]: Compound NOT metabolized
Bacterial Biotransformation [18]: Compound NOT metabolized
Bacterial Biotransformation [19]: Compound NOT metabolized
Bacterial Biotransformation [20]: Compound NOT metabolized

O=c1[nH]c2ccccc2n1CCCN1CCC(n2c(=O)[nH]c3cc(Cl)ccc32)CC1 [DOMPERIDONE]
Bacterial Biotransformation [1]: Compound NOT metabolized
Bacterial Biotransformation [2]: Compound NOT metabolized
Bacterial Biotransformation [3]: Compound NOT metabolized
Bacterial Biotransformation [4]: Compound metabolized
Bacterial Biotransformation [5]: Compound NOT metabolized
Bacterial Biotransformation [7]: Compound NOT metabolized
Bacterial Biotransformation [8]: Compound NOT metabolized
Bacterial Biotransformation [9]: Compound NOT metabolized
Bacterial Biotransformation [10]: Compound NOT metabolized
Bacterial Biotransformation [11]: Compound NOT metabolized
Bacterial Biotransformation [12]: Compound NOT metabolized
Bacterial Biotransformation [14]: Compound NOT metabolized
Bacterial Biotransformation [15]: Compound NOT metabolized
Bacterial Biotransformation [16]: Compound NOT metabolized
Bacterial Biotransformation [17]: Compound NOT metabolized
Bacterial Biotransformation [18]: Compound NOT metabolized
Bacterial Biotransformation [19]: Compound NOT metabolized

c1ccc([C@H]2CN3CCSC3=N2)cc1 [LEVAMISOLE]
Bacterial Biotransformation [1]: Compound metabolized
Bacterial Biotransformation [5]: Compound metabolized
Bacterial Biotransformation [6]: Compound metabolized
Bacterial Biotransformation [7]: Compound NOT metabolized
Bacterial Biotransformation [8]: Compound NOT metabolized
Bacterial Biotransformation [9]: Compound NOT metabolized
Bacterial Biotransformation [10]: Compound metabolized
Bacterial Biotransformation [12]: Compound metabolized
Bacterial Biotransformation [13]: Compound metabolized
Bacterial Biotransformation [14]: Compound metabolized
Bacterial Biotransformation [15]: Compound metabolized
Bacterial Biotransformation [16]: Compound metabolized
Bacterial Biotransformation [18]: Compound metabolized
Bacterial Biotransformation [19]: Compound metabolized
Bacterial Biotransformation [20]: Compound metabolized

C#C[C@]1(O)CC[C@H]2[C@@H]3CCC4=CC(=O)CC[C@@H]4[C@H]3CC[C@@]21CC [LEVONORGESTREL]
Bacterial Biotransformation [1]: Compound metabolized
Bacterial Biotransformation [2]: Compound metabolized
Bacterial Biotransformation [4]: Compound metabolized
Bacterial Biotransformation [5]: Compound NOT metabolized
Bacterial Biotransformation [6]: Compound metabolized
Bacterial Biotransformation [7]: Compound metabolized
Bacterial Biotransformation [8]: Compound NOT metabolized
Bacterial Biotransformation [9]: Compound NOT metabolized
Bacterial Biotransformation [10]: Compound metabolized
Bacterial Biotransformation [11]: Compound metabolized
Bacterial Biotransformation [12]: Compound metabolized
Bacterial Biotransformation [13]: Compound metabolized
Bacterial Biotransformation [14]: Compound metabolized
Bacterial Biotransformation [15]: Compound metabolized
Bacterial Biotransformation [16]: Compound metabolized
Bacterial Biotransformation [19]: Compound metabolized
Bacterial Biotransformation [20]: Compound metabolized

O=C1CC[C@@H](C(=O)N2CSC[C@H]2C(=O)O)N1 [PIDOTIMOD] ([pGlu]-[Thz]-OH)
Bacterial Biotransformation [1]: Compound NOT metabolized
Bacterial Biotransformation [3]: Compound metabolized
Bacterial Biotransformation [4]: Compound NOT metabolized
Bacterial Biotransformation [6]: Compound NOT metabolized
Bacterial Biotransformation [7]: Compound NOT metabolized
Bacterial Biotransformation [8]: Compound NOT metabolized
Bacterial Biotransformation [9]: Compound NOT metabolized
Bacterial Biotransformation [10]: Compound NOT metabolized
Bacterial Biotransformation [11]: Compound NOT metabolized
Bacterial Biotransformation [12]: Compound NOT metabolized
Bacterial Biotransformation [13]: Compound NOT metabolized
Bacterial Biotransformation [14]: Compound metabolized
Bacterial Biotransformation [15]: Compound NOT metabolized
Bacterial Biotransformation [16]: Compound NOT metabolized
Bacterial Biotransformation [18]: Compound NOT metabolized
Bacterial Biotransformation [19]: Compound NOT metabolized
Bacterial Biotransformation [20]: Compound NOT metabolized

COC(=O)[C@H]1[C@H]2C[C@@H]3c4[nH]c5cc(OC)ccc5c4CCN3C[C@H]2C[C@@H](OC(=O)c2cc(OC)c(OC)c(OC)c2)[C@@H]1OC [RESERPINE]
Bacterial Biotransformation [1]: Compound metabolized
Bacterial Biotransformation [2]: Compound NOT metabolized
Bacterial Biotransformation [3]: Compound NOT metabolized
Bacterial Biotransformation [4]: Compound metabolized
Bacterial Biotransformation [5]: Compound NOT metabolized
Bacterial Biotransformation [6]: Compound metabolized
Bacterial Biotransformation [7]: Compound NOT metabolized
Bacterial Biotransformation [8]: Compound NOT metabolized
Bacterial Biotransformation [9]: Compound NOT metabolized
Bacterial Biotransformation [10]: Compound metabolized
Bacterial Biotransformation [11]: Compound metabolized
Bacterial Biotransformation [12]: Compound NOT metabolized
Bacterial Biotransformation [13]: Compound NOT metabolized
Bacterial Biotransformation [14]: Compound metabolized
Bacterial Biotransformation [16]: Compound NOT metabolized
Bacterial Biotransformation [17]: Compound NOT metabolized
Bacterial Biotransformation [18]: Compound metabolized
Bacterial Biotransformation [19]: Compound NOT metabolized
Bacterial Biotransformation [20]: Compound NOT metabolized
